# In patent US8993566B2, “Quinoline compound composing 1,2,4-triazine-dione and use thereof” (Wuhan Shengyun Biopharma Co., Ltd., priority 2012, dated 2015):
# Experiments:
# [1] = test system: human nonsmall-cell lung cancer cell H460; assay: In vitro anti-tumor cell activity (MTT), H460; assay type: cell-based; settings: for H460 IC50: H460 cells, MTT, 72 h, Bliss method
# Experimental: (§1) The digested cell solution was poured into a centrifuge tube, to which a culture media was added to stop the digestion. The centrifuge tube was centrifuged at 800 r/min for 10 min, the supernatant was removed gently and then 5 mL of the culture media was added. The cells were pipetted and mixed homogeneously. 10 μL cell suspension was taken into a cell counting plate for counting, wherein the cell concentration was adjusted to 10^4 cells/well. To each well of a 96-well plate, except for A1 well as blank control, was added 100 μL of the cell suspension. The 96-well plate was placed in an incubator and cultivated for 24 h. […] The 96-well plate was placed in an incubator and cultivated for 72 h. (3) The culture media containing the compounds in the 96-well plate was removed, and the cells were washed with phosphate buffered solution (PBS) twice. To each well was added 100 μL MTT (tetrazole) (0.5 mg/mL), after placing the plate in an incubator to incubate for 4 h, the MTT solution was removed and 100 μL dimethyl sulfoxide was added. The reaction product of survival cells with MTT, i.e. formazan, was dissolved completely by oscillation on a magnetic oscillator, and then placed into a microplate reader to measure the results, and the IC50 values of compounds could be deduced by Bliss method.
# [2] = test system: human colon cancer cell HT-29; assay: In vitro anti-tumor cell activity (MTT), HT-29; assay type: cell-based; settings: for HT-29 IC50: HT-29 cells, MTT, 72 h, Bliss method
# Experimental: as §1
# [3] = test system: human gastric cancer cell MKN-45; assay: In vitro anti-tumor cell activity (MTT), MKN-45; assay type: cell-based; settings: for MKN-45 IC50: MKN-45 cells, MTT, 72 h, Bliss method
# Experimental: as §1
# [4] = test system: human hepatoma carcinoma cell line SMMC-7721; assay: In vitro anti-tumor cell activity (MTT), SMMC-7721; assay type: cell-based; settings: for SMMC-7721 IC50: SMMC-7721 cells, MTT, 72 h, Bliss method
# Experimental: as §1
# [5] = target: T1, c-Met kinase (His-tagged recombinant human Met (amino acids 974-end)) (Homo sapiens, UniProt P08581); assay: c-Met Enzyme Activity Inhibition Assay (ELISA); assay type: biochemical; settings: 50 pM c-Met, 5 μM ATP, room temperature 20 min
# T1 construct: His-tagged recombinant human Met (amino acids 974-end); His
# T1 sequence (P08581 956-1390): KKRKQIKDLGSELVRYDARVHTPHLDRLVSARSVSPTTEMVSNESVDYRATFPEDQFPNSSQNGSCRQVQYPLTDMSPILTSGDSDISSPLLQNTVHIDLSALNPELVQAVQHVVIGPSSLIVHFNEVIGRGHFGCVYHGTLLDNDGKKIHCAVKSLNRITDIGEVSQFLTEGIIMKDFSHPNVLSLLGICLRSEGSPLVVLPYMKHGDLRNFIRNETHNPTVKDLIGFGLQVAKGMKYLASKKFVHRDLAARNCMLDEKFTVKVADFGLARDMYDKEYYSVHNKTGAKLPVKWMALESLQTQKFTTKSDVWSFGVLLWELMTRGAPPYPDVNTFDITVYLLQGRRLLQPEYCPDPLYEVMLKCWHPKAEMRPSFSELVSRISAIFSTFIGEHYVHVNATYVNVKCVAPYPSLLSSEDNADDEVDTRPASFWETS
# Experimental: c-Met Enzyme Activity Inhibition Assay
# The assay for the determination of c-Met kinase activity is based on an enzyme linked immunosorbant assay (ELISA). A compound of Formula I, 50 pM c-Met (His-tagged recombinant human Met (amino acids 974-end), expressed by baculovirus), and 5 μM ATP in an assay buffer (25 mM MOPS, pH 7.4, 5 mM MgCl2, […], 100 μM sodium orthovanadate, 0.01% Triton X-100, 1 mM DTT, final DMSO concentration 1% (v/v)) were incubated on a plate coated with 0.25 mg/mL POT at room temperature for 20 min. The reaction mixture was removed by washing and the phosphorylated polymer substrate was detected with 0.2 μg/mL phosphotyrosine specific monoclonal antibody (PY20) conjugated to horseradish peroxidase (HRP). After the addition of 1M phosphoric acid to stop the development, the chromogenic substrate (TMB) color was quantitated by spectrophotometry at 450 nm.
Molecule,H460 IC50 [1] [µg/mL],HT-29 IC50 [2] [µg/mL],MKN-45 IC50 [3] [µg/mL],SMMC-7721 IC50 [4] [µg/mL],IC50 for inhibiting c-Met kinase [5] [µg/mL],"IC50 ([1]; Homo sapiens, NCI-H460, 72 h, read-out: H460 IC50) [µg/mL]","IC50 ([2]; Homo sapiens, HT-29, 72 h, read-out: HT-29 IC50) [µg/mL]","IC50 ([3]; Homo sapiens, MKN-45, 72 h, read-out: MKN-45 IC50) [µg/mL]","IC50 ([4]; Homo sapiens, SMMC-7721, 72 h, read-out: SMMC-7721 IC50) [µg/mL]",IC50 ([5]; read-out: IC50 for inhibiting c-Met kinase (converted)) [nM]
"N-[3-fluoro-4-[7-methoxy-6-[3-(1-piperidinyl)propyloxy]quinolin-4-oxy]phenyl]-2-(2-trifluoromethylphenyl)-4-allyl-3,5-dicarbonyl-2,3,4,5-tetrahydro-1,2,4-triazine-6-carboxamide [Example 37]",1.7,0.88,0.12,2.3,3.7,,,,,
"N-[3-fluoro-4-[6-methoxy-7-[3-(1-pyrrolidyl)propyloxy]quinolin-4-oxy]phenyl]-2-(4-methoxyphenyl)-4-methyl-3,5-dicarbonyl-2,3,4,5-tetrahydro-1,2,4-triazine-6-carboxamide [Example 11]",2.1,1.4,3.3,2.5,0.47,,,,,
"N-[3-fluoro-4-[6-methoxy-7-[3-(4-methyl-1-piperidinyl)propyloxy]quinolin-4-oxy]phenyl]-2-(3-trifluoromethylphenyl)-4-methyl-3,5-dicarbonyl-2,3,4,5-tetrahydro-1,2,4-triazine-6-carboxamide [Example 24]",0.28,0.5,0.093,0.61,0.18,,,,,
"COc1cc2c(Oc3ccc(NC(=O)c4nn(-c5ccccc5)c(=O)n(C)c4=O)cc3F)ccnc2cc1OCCCN1CCCC1 [Example 1, N-[3-fluoro-4-[6-methoxy-7-[3-(tetrahydropyrrol-1-yl)propyloxy]quinolin-4-oxy]phenyl]-2-phenyl-4-methyl-3,5-dioxo-2,3,4,5-tetrahydro-1,2,4-triazine-6-carboxamide]",,,,,,0.26,0.12,0.042,0.18,71.8
"N-[3-fluoro-4-[6-methoxy-7-[3-(4-morpholinyl)propyloxy]quinolin-4-oxy]phenyl]-2-(2-fluorophenyl)-4-methyl-3,5-dicarbonyl-2,3,4,5-tetrahydro-1,2,4-triazine-6-carboxamide [Example 23]",0.57,0.35,0.0028,0.44,0.82,,,,,
"COc1cc2c(Oc3ccc(NC(=O)c4nn(-c5ccc(F)c(F)c5)c(=O)n(C)c4=O)cc3F)ccnc2cc1OCCCN1CCOCC1 [Example 18, N-[3-fluoro-4-[6-methoxy-7-[3-(4-morpholinyl)propyloxy]quinolin-9-oxy]phenyl]-2-(3,4-difluorophenyl)-4-methyl-3,5-dioxo-2,3,4,5-tetrahydro-1,2,4-triazine-6-carboxamide]",0.57,0.3,0.0008,0.45,0.32,,,,,
"N-[3-fluoro-4-[6-methoxy-7-(3-(4-methyl-1-piperazinyl)propyloxy)quinolin-4-oxy]phenyl]-2-(3-trifluoromethylphenyl)-4-methyl-3,5-dicarbamoyl-2,3,4,5-tetrahydro-1,2,4-triazine-6-carboxamide [Example 25]",0.52,0.05,0.014,0.07,1.01,,,,,
"N-[3-fluoro-4-[7-methoxy-6-[3-(4-methyl-1-piperidinyl)propyloxy]quinolin-4-oxy]phenyl]-2-(2-trifluoromethylphenyl)-4-butyl-3,5-dicarbonyl-2,3,4,5-tetrahydro-1,2,4-triazine-6-carboxamide [Example 33]",0.15,0.18,0.09,0.43,0.27,,,,,
